{"source": "paper PMC8344021", "about": "“Discovery of Small Molecule Bak Activator for Lung Cancer Therapy” (Theranostics, 2021)", "key": {"[1]": {"system": "A549 cells", "experiment": "Apoptotic cell death assay (Annexin V/PI)", "type": "cell-based, human", "source_text": "Supplemental Materials and Methods\nSmall molecule NSC14073 (BKA-073) was obtained from the Drug Synthesis and Chemistry Branch, Developmental Therapeutic Program, Division of Cancer Treatment and Diagnosis, National Cancer Institute (NCI, Bethesda, MD) (http://dtp.nci.nih.gov/RequestCompounds).\nVenetoclax (ABT-199, 205807) was purchased from MedKoo Biosciences (Morrisville, NC).\nAntibodies including PARP (sc-8007), Bax (sc-7480), Mcl-1 (sc-12756), cytochrome c (sc-13156) and actin (sc-47778) were purchased from Santa Cruz (Santa Cruz, CA). Bcl2 antibody (05-826) was obtained from Calbiochem (Darmstadt, Germany). Bcl-XL (ab32370), Bak (ab32371) and Bax (ab104156) antibodies were purchased from Abcam (Cambridge, MA).\nActive caspase 3 (9579S) and Mcl-1 (94296S) antibodies were purchased from Cell Signaling Technology (Danvers, MA). Fluorescent Bak BH3 domain peptide (FAM-GQVGRQLAIIGDDINR) and purified Bcl-XL protein were purchased from NeoBioSciTM (Cambridge, MA). Bim BH3 peptide (AS-62278) was obtained from AnaSpec, Inc. (Fremont, CA). Purified recombinant human Bak protein (BAK1-26166TH) was purchased from Creative Biomart (Shirley, NY). Purified recombinant human Bax protein (H00000581-P01) was obtained from Novus Biologicals (Littleton, CO) and purified human Bcl-XL protein (SRP0187) was purchased from Sigma-Aldrich (St. Louis, MO). Purified human Bcl2 protein was obtained from ProteinX Lab (San Diego, CA). Purified recombinant human Mcl-1 protein (GWB-P0342D) was purchased from GenWay Biotech, Inc. (San Diego, CA). Purified recombinant human Bcl-w (824-BW-050) protein was obtained from R&D systems (Minneapolis, MN). Bis (maleimido) hexane (BMH) (22330) was purchased from Thermo Scien tific (Rockford, IL). JC -1 (ENZ-52304) was obtained from Enzo Life Sciences, Inc. (Farmingdale, NY). All other reagents used were obtained from commercial sources unless otherwise stated. […]\nApoptotic cell death assay\nApoptotic cells were detected using Annexin-V Apoptosis Detection Kit (556547, BD Biosciences, San Jose, CA) according to the manufacturer’s instructions. After treatment with BKA-073 or other agent(s) for 72h, cells were washed twice with cold 1x PBS and then resuspended in 1 x Binding Buffer at a concentration of 1 x 10^6 cells/ml. 100 μl of the solution […]\n(1 x 10^5 cells) was transferred to a 5 ml culture tube, followed by the addition of 5 μl of FITC Annexin V and 5 μl propidium iodide (PI). The cells were gently vortexed and incubated for 15 min at RT (25°C) in the dark. 400 μl of 1x binding buffer was added to each tube. […]\nmM DTT] in black 96-well microplates. The plate was mixed o n a shaker for 1 minute and incubated at room temperature for an additional 15 minutes. The FP values (in millipolarization units) were measured using a fluorescence microplate reader at 485/530 nm (Gemini XPS, Molecular Devices). Data analysis and inhibit ory constant (Ki) value was determined by GraphPad prism software as described.\nCloning, protein expression and purification of mouse B ak protein\nThe clone pMIH-mRuby2-mouse Bak (#111627) for generation of mouse Bak protein was obtained from Addgene (Watertown, MA). The mouse Bak cDNA was cloned into pET29b expression vector between BglII and XhoI sites as His tag fusions. The BL21 DE3 Escherichia coli containing plasmid was grown at 37°C in LB (Luria-Bertani) media. The protein expression was induced with IPTG (0.2 mM) at 18°C for 16 h when the density reached an OD600 of 0.6.\nBacteria were then harvested and resuspended in 30 ml buffer A (20 mM Tris, pH 8.0, 120 mM NaCl, 10% glycerol, and protease inhibitor cocktail) and lysed by sonication. The lysate was centrifuged at 14,000 rpm for 30 min. The resulting supernatant was incubated with HisPur Cobalt Resin (Thermo Scientific) at 4 °C for 2h. After washing wi th buffer A, His-tagged mouse Bak proteins was eluted with buffer B (20 mM Tris, pH 8.0, 120 mM NaCl, 300 mM imidazole, 10% glycerol with protease inhibitor). The elution peak of interest was checked by SDS -PAGE […]"}, "[2]": {"system": "SCLC PDXs (TKO-2 and TKO-5)", "experiment": "SCLC patient-derived xenografts, tumor growth", "type": "in vivo, Nu/Nu nude mice", "conditions": "15mg/kg/d i.p., 2-4 weeks", "protocol": "Six-week-old female Nu/Nu nude mice were purchased from Envigo (Indianapolis, IN) and housed under pathogen-free conditions in microisolator cages. The animal propagation protocol was approved by the Emory Institutional Animal Care and Use Committee (IACUC) and the Emory Animal Ethics Committee. 3×10^6 lung cancer cells were injected into subcutaneous tissue in the flank region of nude mice. The tumors were allowed to grow to an average volume of 150~200 mm^3 prior to initiation of therapy as previously described, [29]. Patient-derived xenografts (PDXs, TKO-002 and TKO-005) were established as part of an IRB-approved phase II co-clinical trial of arsenic trioxide in patients with relapsed SCLC who had failed standard platinum-based chemotherapy. Tumor samples were obtained by image-guided biopsy and were directly implanted into Nu/Nu nude mice without intervening propagation in plastic culture plates. Direct serial propagation of growing tumor occurred for up to 5 generations. The animal propagation protocol was approved by the Emory IACUC and the Emory Animal Ethics Committee. Mice with SCLC and NSCLC xenografts or PDXs were treated with BKA-073 intraperitoneally (i.p.) or venetoclax orally as indicated. During treatment, tumor volume (V) was measured by caliper measurements once every two days as described previously. Mice were euthanized by CO2 inhalation at the end of treatment. […]"}}}
{"compound": "COc1ccc2nc3ccccc3c(NCCNCC(C)O)c2c1", "note": "(stereo not drawn) [BKA-073]", "values": [{"measurement": "induction of apoptotic cell death", "setting": "[1]; 0, 0.25, 0.5, 0.75, 1.0 µM, 72h", "result": "in a dose-dependent manner"}, {"measurement": "sensitivity (DBP and apoptosis)", "setting": "[1]; A549 Bak-/- cells expressing A79E Bak, 1 µM", "result": "completely or partially restored sensitivity"}, {"measurement": "sensitivity (DBP and apoptosis)", "setting": "[1]; A549 Bak-/- cells expressing D83E Bak, 1 µM", "result": "failed to restore sensitivity"}, {"measurement": "sensitivity (DBP and apoptosis)", "setting": "[1]; A549 Bak-/- cells expressing I80E Bak, 1 µM", "result": "completely or partially restored sensitivity"}, {"measurement": "sensitivity (DBP and apoptosis)", "setting": "[1]; A549 Bak-/- cells expressing N86E Bak, 1 µM", "result": "failed to restore sensitivity"}, {"measurement": "sensitivity (DBP and apoptotic cell death)", "setting": "[1]; A549 Bak-/- cells expressing exogenous WT Bak, 1 µM", "result": "restored sensitivity"}, {"measurement": "sensitivity (DBP and apoptotic cell death)", "setting": "[1]; A549 Bak-/- cells expressing ΔBH3 mutant Bak, 1 µM", "result": "failed to restore sensitivity"}, {"measurement": "sensitivity (DBP and apoptotic cell death)", "setting": "[1]; A549 Bak-/- cells transfected with vector-only, 1 µM", "result": "resistant"}, {"measurement": "apoptotic cell death", "setting": "[1]; Bak-/- A549 cells", "result": "~ 20%"}, {"measurement": "sensitivity (DBP and apoptotic cell death)", "setting": "[1]; Bak-/- A549 cells, 1μM, 16h or 72h", "result": "significant resistance"}, {"measurement": "sensitivity (DBP and apoptotic cell death)", "setting": "[1]; Bax-/- A549 cells, 1μM, 16h or 72h", "result": "sensitive"}, {"measurement": "apoptotic cell death", "setting": "[1]; DKO A549 cells", "result": "~ 20%"}, {"measurement": "sensitivity (DBP and apoptotic cell death)", "setting": "[1]; DKO A549 cells, 1μM, 16h or 72h", "result": "significant resistance"}, {"measurement": "sensitivity (DBP and apoptotic cell death)", "setting": "[1]; parental A549 cells, 1μM, 16h or 72h", "result": "sensitive"}, {"measurement": "tumor growth", "setting": "[2]", "result": "potently suppressed tumor growth"}]}
